Test system: VEGF promoter (luciferase reporter) in Hep3B cells
Test: Cell-based assay of VEGF gene transcription (VEGF-Luciferase assay)
Details: Hep3B cells stably expressing VEGF-luciferase construct; 100 μM desferoxamine, 18 hours; read-out: IC50 (concentration of compound required to cause a 50% reduction of the luciferase signal)
Protocol: Cell-Based Assay of VEGF Gene Transcription (VEGF-Luciferase Assay).
The activity of compounds is determined by a cell-based reporter assay which uses the hepatoma 3B (Hep3B) cell line.
This assay involves the use of a luciferase reporter gene under the direct control of the VEGF promoter. Induction of the hypoxic response using desferoxamine leads to the transcription of luciferase through activation of the VEGF promoter, which in turn leads to an increase in luciferse activity, which can be measured using most of commercially available luciferase assay kits. Molecules which inhibit the activation of the VEGF promoter can thus be detected.
This assay can be run using a Hep3B cell line which stably expresses the VEGF-luciferase construct.
Hep3B cells (ATCC Ref. No. HB-8064) are plated in 6-well plates at 2.5×10^5 cells/well in 2 mL DMEM/10% FCS and are transfected the following day using Fugene 6 (Roche Biochemicals®). Transfection mixtures per well contain 6 μL Fugene 6 transfection reagent, 1 μg of pxp2-VEGF-luciferase reporter (rat VEGF promoter, NCBI GenBank accession no. U22373, Levy et al., 1995), plus pcDNA3.1(+) Neomycin resistance vector (INVITROGEN). […]
Luciferase activity is measured using the Bright Glo Luciferase Assay System (Promega®, see also technical Manual, Part #TM052, Instructions for Use of Products E2620 and E2650, revised 10/00). […]

IC50: < 10 µM
SMILES: CCN(CC)c1ccc2cc(-c3nc(-c4ccccc4)cs3)c(=O)oc2c1 [Example 8]

— patent US20060122387A1, “Derivatives of chromen-2-one as inhibitors of vegf production in mammalian cells” (CTI Europe S.r.l., priority 2002, published 2006)
